{"source": "patent US20090054259A1", "about": "“METHODS FOR INDUCING COMPLETE APOPTOSIS OF LIVER CELLS EXPRESSING HBCHI PROTEIN AND SCREENING FOR SUBSTANCES OR GENES THAT INHIBIT THE APOPTOSIS” (priority 2004, published 2009)", "key": {"[1]": {"system": "Chang X31 cells", "assay_type": "cell-based, human"}, "[2]": {"system": "Chang V9 cells", "assay": "Induction of apoptosis by sulfasalazine in the control liver cell line not expressing HBx protein", "assay_type": "cell-based, human", "details": "for extent of apoptosis: 120 h"}, "[3]": {"system": "Chang X31 cells", "assay": "DAPI staining, morphology of apoptosis", "assay_type": "cell-based, human", "details": "1.3 mM sulfasalazine, 72 hours", "experimental": "(§1) Chang X 31 and Chang V9 cells were split on 6-well plates, and […], treated with 1.3 mM sulfasalazine.\n(§2) 72 hours after the sulfasalzine treatment, DAPI staining was performed to observe apoptosis. The cells were directly fixed in the cold solution consisting of 1% […] and 0.2% glutaraldehyde for 5 min, washed twice with PBS and then stained with 1 mg/ml of DAPI solution (Sigma, USA). The cells were incubated for 5 hours in dark.\n(§3) The stained cells were examined using a fluorescent microscopy."}, "[4]": {"system": "Chang V9 cells", "assay": "DAPI staining, morphology of apoptosis", "assay_type": "cell-based, human", "details": "1.3 mM sulfasalazine, 72 hours", "experimental": "as §1, §2, §3"}, "[5]": {"system": "NF-κB", "details": "through inhibiting the phosphorylation of IκB; Wahl et al. 1998; cited from earlier work"}, "[6]": {"system": "Chang X31 cells", "assay_type": "cell-based, human", "details": "for extent of apoptosis: 120 h"}}, "note": "Read-outs that look alike come from different tables or passages of the source."}
{"smiles": "CC(=O)N[C@@H](CS)C(=O)O", "note": "[NAC, N-acetyl-L-cystein]", "values": [{"measurement": "apoptosis", "setting": "[1]; 2 mM GSH (group I), 1 mM NAC (group II) before 1.3 mM sulfasalazine, 120 h, crystal violet", "value": "only partial apoptosis"}, {"measurement": "inhibition of the apoptosis of the liver cell line (conclusion)", "setting": "[1]; 2 mM GSH, 1 mM NAC, 0.5 mM STS, […]", "value": "effective in inhibiting the apoptosis"}]}
{"smiles": "N[C@@H](CCC(=O)N[C@@H](CS)C(=O)NCC(=O)O)C(=O)O", "note": "[GSH, glutathione]", "values": [{"measurement": "apoptosis", "setting": "[1]", "value": "only partial apoptosis"}, {"measurement": "inhibition of the apoptosis of the liver cell line (conclusion)", "setting": "[1]", "value": "effective in inhibiting the apoptosis"}]}
{"smiles": "O=C(O)c1cc(/N=N/c2ccc(S(=O)(=O)Nc3ccccn3)cc2)ccc1O", "note": "[sulfasalazine]", "values": [{"measurement": "survival rate", "setting": "[2]; 1.0 mM sulfasalazine, re-treated at 48 h, read 72 h after re-treatment (120 h)", "value": "at least 50%"}, {"measurement": "extent of apoptosis", "setting": "[2]; 1.3 mM sulfasalazine", "value": 10, "unit": "%"}, {"measurement": "extent of apoptosis", "setting": "[2]; at least 1.5 mM sulfasalazine", "value": "at least 20%"}, {"measurement": "typical features of apoptosis (nuclear condensation, shrinkage, fragmentation)", "setting": "[3]", "value": "observed in only Chang X 31"}, {"measurement": "typical features of apoptosis (nuclear condensation, shrinkage, fragmentation)", "setting": "[4]", "value": "not in Chang V9"}, {"measurement": "effect on TNF-α-induced nuclear translocation of NF-κB", "setting": "[5]", "value": "prevents TNF-α-induced nuclear translocation of NF-κB"}, {"measurement": "survival rate", "setting": "[6]; 1.0 mM sulfasalazine, re-treated at 48 h, read 72 h after re-treatment (120 h), […]", "value": "at least 50%"}, {"measurement": "extent of apoptosis", "setting": "[6]; 1.3 mM sulfasalazine, […]", "value": 100, "unit": "%"}, {"measurement": "extent of apoptosis", "setting": "[6]; at least 1.5 mM sulfasalazine, […]", "value": 100, "unit": "%"}, {"measurement": "concentration inducing complete apoptosis of Chang X31 cells", "setting": "[6]; complete (100%) apoptosis within 120 hours", "value": "at least 1.3 mM"}]}
{"smiles": "CN[C@@H]1C[C@H]2O[C@@](C)([C@@H]1OC)n1c3ccccc3c3c4c(c5c6ccccc6n2c5c31)C(=O)NC4", "note": "[STS, staurosporine]", "values": [{"measurement": "apoptosis", "setting": "[1]; 0.5 mM STS (group III) before 1.3 mM sulfasalazine, 120 h, crystal violet", "value": 100, "unit": "%"}]}
